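Cultured in 96-well plates, cells were exposed to test compound for 48 hours across five concentrations. Abbreviation: GI50, concentration required for 50% inhibition of growth. TGI is the concentration that stops growth completely.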
Experiments:
Experiment in all cases: growth of human tumour cells (NCI), 48 h
K-562 leukemia = test system: K-562 leukemia
SK-MEL-28 melanoma = test system: SK-MEL-28 melanoma
UO-31 renal = test system: UO-31 renal
SK-MEL-5 melanoma = test system: SK-MEL-5 melanoma
HOP-62 NSCLC = test system: HOP-62 NSCLC
NCI-H522 lung = test system: NCI-H522 lung
NCI-H226 lung = test system: NCI-H226 lung
CAKI-1 renal = test system: CAKI-1 renal
RXF 393 renal = test system: RXF 393 renal
MDA-MB-231 breast = test system: MDA-MB-231 breast
HS 578T breast = test system: HS 578T breast
MDA-MB-435 = test system: MDA-MB-435
MOLT-4 leukemia = test system: MOLT-4 leukemia
MCF7 breast = test system: MCF7 breast
OVCAR-4 ovarian = test system: OVCAR-4 ovarian
IGROV1 ovarian = test system: IGROV1 ovarian
HCT-15 colon = test system: HCT-15 colon
SNB-75 CNS = test system: SNB-75 CNS
SK-OV-3 ovarian = test system: SK-OV-3 ovarian
786-0 renal = test system: 786-0 renal
A549 NSCLC = test system: A549 NSCLC
OVCAR-5 ovarian = test system: OVCAR-5 ovarian
SNB-19 CNS = test system: SNB-19 CNS
SF-295 CNS = test system: SF-295 CNS
HCT-116 colon = test system: HCT-116 colon
PC-3 prostate = test system: PC-3 prostate
BT-549 breast = test system: BT-549 breast
EKVX NSCLC = test system: EKVX NSCLC
CCRF-CEM leukemia = test system: CCRF-CEM leukemia
HCC-2998 colon = test system: HCC-2998 colon
NCI/ADR-RES ovarian = test system: NCI/ADR-RES ovarian
NCI-H460 lung = test system: NCI-H460 lung
COLO 205 colon = test system: COLO 205 colon
A498 renal = test system: A498 renal
T-47D breast = test system: T-47D breast
DU-145 prostate = test system: DU-145 prostate
MALME-3M melanoma = test system: MALME-3M melanoma
TK-10 renal = test system: TK-10 renal
M14 melanoma = test system: M14 melanoma
ACHN renal = test system: ACHN renal
HT29 colon = test system: HT29 colon
SF-539 CNS = test system: SF-539 CNS
RPMI-8226 leukemia = test system: RPMI-8226 leukemia
SW-620 colon = test system: SW-620 colon
SK-MEL-2 melanoma = test system: SK-MEL-2 melanoma
NCI-H23 lung = test system: NCI-H23 lung
LOX IMVI melanoma = test system: LOX IMVI melanoma
UACC-257 melanoma = test system: UACC-257 melanoma
SR leukemia = test system: SR leukemia
SN12C renal = test system: SN12C renal
UACC-62 melanoma = test system: UACC-62 melanoma
OVCAR-8 ovarian = test system: OVCAR-8 ovarian
OVCAR-3 ovarian = test system: OVCAR-3 ovarian
HL-60(TB) leukemia = test system: HL-60(TB) leukemia
KM12 colon = test system: KM12 colon
U251 CNS = test system: U251 CNS
HOP-92 NSCLC = test system: HOP-92 NSCLC
SF-268 CNS = test system: SF-268 CNS

SMILES: CCn1cc(C2NC(=O)c3ccccc3N2)c2cccc(C)c21 (stereo not given)
- GI50 (K-562 leukemia): 224 nM
- TGI (K-562 leukemia): > 100000 nM
- GI50 (SK-MEL-28 melanoma): 2040 nM
- TGI (SK-MEL-28 melanoma): > 100000 nM
- GI50 (UO-31 renal): 631 nM
- TGI (UO-31 renal): 16400 nM
- GI50 (SK-MEL-5 melanoma): 338 nM
- TGI (SK-MEL-5 melanoma): 5870 nM
- GI50 (HOP-62 NSCLC): 517 nM
- TGI (HOP-62 NSCLC): 34200 nM
- GI50 (NCI-H522 lung): 265 nM
- TGI (NCI-H522 lung): 17600 nM
- GI50 (NCI-H226 lung): 572 nM
- TGI (NCI-H226 lung): 13200 nM
- GI50 (CAKI-1 renal): 289 nM
- TGI (CAKI-1 renal): 20400 nM
- GI50 (RXF 393 renal): 199 nM
- TGI (RXF 393 renal): 658 nM
- GI50 (MDA-MB-231 breast): 991 nM
- TGI (MDA-MB-231 breast): 12000 nM
- GI50 (HS 578T breast): 255 nM
- TGI (HS 578T breast): 1950 nM
- GI50 (MDA-MB-435): 142 nM
- TGI (MDA-MB-435): 357 nM
- GI50 (MOLT-4 leukemia): 531 nM
- TGI (MOLT-4 leukemia): > 100000 nM
- GI50 (MCF7 breast): 298 nM
- TGI (MCF7 breast): > 100000 nM
- GI50 (OVCAR-4 ovarian): 1490 nM
- TGI (OVCAR-4 ovarian): 13100 nM
- GI50 (IGROV1 ovarian): 473 nM
- TGI (IGROV1 ovarian): > 100000 nM
- GI50 (HCT-15 colon): 360 nM
- TGI (HCT-15 colon): 24500 nM
- GI50 (SNB-75 CNS): 184 nM
- TGI (SNB-75 CNS): 829 nM
- GI50 (SK-OV-3 ovarian): 522 nM
- TGI (SK-OV-3 ovarian): > 86100 nM
- GI50 (786-0 renal): 539 nM
- TGI (786-0 renal): 22300 nM
- GI50 (A549 NSCLC): 653 nM
- TGI (A549 NSCLC): 14700 nM
- GI50 (OVCAR-5 ovarian): 915 nM
- TGI (OVCAR-5 ovarian): > 91600 nM
- GI50 (SNB-19 CNS): 456 nM
- TGI (SNB-19 CNS): > 100000 nM
- GI50 (SF-295 CNS): 293 nM
- GI50 (HCT-116 colon): 409 nM
- TGI (HCT-116 colon): 11500 nM
- GI50 (PC-3 prostate): 443 nM
- TGI (PC-3 prostate): > 100000 nM
- GI50 (BT-549 breast): 901 nM
- TGI (BT-549 breast): 17600 nM
- GI50 (EKVX NSCLC): 621 nM
- TGI (EKVX NSCLC): > 100000 nM
- GI50 (CCRF-CEM leukemia): 324 nM
- TGI (CCRF-CEM leukemia): 96900 nM
- GI50 (HCC-2998 colon): 1080 nM
- TGI (HCC-2998 colon): 8220 nM
- GI50 (NCI/ADR-RES ovarian): 319 nM
- TGI (NCI/ADR-RES ovarian): 4570 nM
- GI50 (NCI-H460 lung): 346 nM
- TGI (NCI-H460 lung): 1460 nM
- GI50 (COLO 205 colon): 485 nM
- TGI (COLO 205 colon): 9880 nM
- GI50 (A498 renal): 172 nM
- TGI (A498 renal): 947 nM
- GI50 (T-47D breast): 556 nM
- TGI (T-47D breast): > 100000 nM
- GI50 (DU-145 prostate): 430 nM
- TGI (DU-145 prostate): 27900 nM
- GI50 (MALME-3M melanoma): 449 nM
- TGI (MALME-3M melanoma): > 100000 nM
- GI50 (TK-10 renal): 3000 nM
- TGI (TK-10 renal): > 40900 nM
- GI50 (M14 melanoma): 298 nM
- TGI (M14 melanoma): > 100000 nM
- GI50 (ACHN renal): 685 nM
- TGI (ACHN renal): 23100 nM
- GI50 (HT29 colon): 331 nM
- TGI (HT29 colon): 4290 nM
- GI50 (SF-539 CNS): 275 nM
- TGI (SF-539 CNS): 1340 nM
- GI50 (RPMI-8226 leukemia): 381 nM
- TGI (RPMI-8226 leukemia): > 100000 nM
- GI50 (SW-620 colon): 337 nM
- TGI (SW-620 colon): > 100000 nM
- GI50 (SK-MEL-2 melanoma): 631 nM
- TGI (SK-MEL-2 melanoma): > 100000 nM
- GI50 (NCI-H23 lung): 844 nM
- TGI (NCI-H23 lung): > 100000 nM
- GI50 (LOX IMVI melanoma): 571 nM
- TGI (LOX IMVI melanoma): 13700 nM
- GI50 (UACC-257 melanoma): 60000 nM
- TGI (UACC-257 melanoma): > 100000 nM
- GI50 (SR leukemia): 261 nM
- TGI (SR leukemia): > 100000 nM
- GI50 (SN12C renal): 579 nM
- TGI (SN12C renal): 17000 nM
- GI50 (UACC-62 melanoma): 311 nM
- TGI (UACC-62 melanoma): > 100000 nM
- GI50 (OVCAR-8 ovarian): 617 nM
- TGI (OVCAR-8 ovarian): 22600 nM
- GI50 (OVCAR-3 ovarian): 275 nM
- TGI (OVCAR-3 ovarian): 1020 nM
- GI50 (HL-60(TB) leukemia): 310 nM
- TGI (HL-60(TB) leukemia): 1060 nM
- GI50 (KM12 colon): 389 nM
- TGI (KM12 colon): 22200 nM
- GI50 (U251 CNS): 456 nM
- TGI (U251 CNS): 13900 nM
- GI50 (HOP-92 NSCLC): 4790 nM
- TGI (HOP-92 NSCLC): > 78700 nM
- GI50 (SF-268 CNS): 1360 nM
- TGI (SF-268 CNS): > 68000 nM
